One data set has as its system RL95-2 cells. Kind of data set: Foci forming assay in RL95-2 cells. It is filed as cell-based, human. The conditions noted are these: RL95-2, PME-1 depleted, compared to control cells. As to the method:
A foci forming assay was used in this study to monitor cell growth. Equal amounts of cells were plated and they were allowed to grow for a determined period of time (see Materials and Methods section for details). The foci that were formed were then stained with the crystal violet dye. Cells were washed […] with PBS prior to visualization. Numbers of foci were counted and results were averaged among different experiments.
To determine if the loss of active PME-1 accounted for the observed decrease in foci formation, we first treated RL95-2 cells with siRNA against the 3′-UTR of PPME1 to decrease endogenous levels of PME-1. […] The S156A PME-1 mutant is not capable of demethylating its target, PP2A.
1,000 cells were plated in a six well tissue culture dish in selection media (to include 5 μg/ml puromycin) (InvivoGen). Cells were allowed to adhere and grow in a 5% CO2, 37° C. incubator for 10 to 14 days. Media was replaced every fourth day. Cells were stained with 1% crystal violet (Sigma Aldrich) for five minutes and rinsed with PBS. Colonies were counted and data is presented as the percentage of change compared to the control. All Experiments were repeated at least three times.

For another data set, the system named is phospho-ERK. Kind of data set: Western analysis of phospho-ERK in RL95-2 cells. Type of data set: cell-based, human. The conditions noted are these: compared to control cells; total ERK as reference. As to the method:
When PME-1 was depleted with shRNA, there was a decrease in phospho-ERK compared to control cells.
15 μg of protein was used for western analysis. PME-1 antibody (Santa Cruz) and COXIV (Cell Signaling Technologies) were used for detection of proteins and the blots were developed using chemiluminescence (Pierce ECL Western Blotting Substrate—Thermo Scientific) on the GE ImageQuant LAS 4000. For analysis of Akt, ERK, and β-catenin signaling in tissue culture, western analyses were completed as follows. RL95-2 cells stably infected with lentivirus expressing constructs were selected with puromycin (Invivogen). The cells were incubated with either 50 μM Akt inhibitor (LY 294002, Cell Signaling Technologies) or 40 μM ERK inhibitor (V0126, Cell Signaling Technologies) for 1-2 hours at 37° C. 1.5× Laemelli buffer (0.5 M Tris pH6.8, […], 10% sodium dodecyl sulfate, 100 mM EDTA) was used to prepare cell lysates. 20 μg of protein was used for western analysis. Primary antibodies used were: P-Akt (Ser473), P-Akt (Thr308), pan-Akt, P-ERK (Thr202/204), total ERK (Cell Signaling Technologies), PME-1 (Santa Cruz), phospho-β-catenin (Ser45, Cell Signaling Technologies), phospho-β-catenin (Ser33/37/Thr41, Cell Signaling Technologies), β-catenin (Abcam), DcR2 (Abcam), and GAPDH (Abcam). All experiments were repeated several times with similar results.

In the data set on RL95-2 cells, “shPPME1 no. 2: shRNA targeting PPME1, SEQ ID NO: 2: GCAGCGATTATTAGTAGAGTT, bp 289-309; used for all subsequent experiments (guide GCAGCGATTATTAGTAGAGTT; listed as Homo sapiens)” showed a decrease in foci of 75%. Moreover, the phospho-ERK result in the data set on phospho-ERK is “decrease”.

Source of the values: patent US20200190592A1, “PME-1 AS A BIOMARKER TO PREDICT AND DIAGNOSE AN INCREASED RISK OF ENDOMETRIAL CANCER AND GENE SILENCING OF PME-1 TO INHIBIT EPITHELIAL TO MESENCHYMAL TRANSITION” (Medical Diagnostic Laboratories, L.L.C., priority 2018, published 2020).
